# Like-named read-outs stand apart in the source and are kept apart here.
# Columns and labels:
# [1] = biological target: Her2 receptor tyrosine kinase (Homo sapiens (Human), UniProt P04626); assay: In vitro kinase analysis, HTScan HER2/ErbB2 Kinase Assay Kit (substrate peptide phosphorylation); type: biochemical
# Method: (§1) Operation steps refer to the specification of the used kits, and the method was used to measure the inhibition effects of the compound to be tested on substrate peptide phosphorylation of EGFR or Her2 receptor tyrosine kinase. At room temperature, ATP and substrate peptide as well as the compound to be tested were incubated in kinase reaction buffer, after a period of incubation, a stop buffer was added to terminate the reaction and the sample was transferred to a streptavidin-coated 96-well plate, the plate was washed and the phosphorylation level of substrate peptide was detected by using HRP-marked antibody against substrate phosphorylation, colorated with TMB, terminated the reaction with 2M sulfuric acid. Absorption at 450 nm wavelength was detected, and IC50 value (μM) was calculated.
# [2] = biological target: EGFR receptor tyrosine kinase (Homo sapiens (Human), UniProt P00533); assay: In vitro kinase analysis, HTScan EGF Receptor Kinase Assay Kit (substrate peptide phosphorylation); type: biochemical
# Method: as §1
# [3] = system: human breast cancer cells BT474; assay: Test of cell proliferation inhibition (SRB), BT474; type: cell-based; details: BT-474, 72 h
# Method: (§2) The test was performed by referring to the method as described by Rusnak et al., Cell Prolif, 2007, 40, 580-594. The test of cell proliferation inhibition used human breast cancer cells BT474 and human gastric cancer cell line NCI-N87, BT474 over-expressing Her2 receptor, N87 over-expressing EGFR and Her2 receptor.
# (§3) In a Dulbecco Modified Eagle Medium (DMEM) comprising 10% fetal bovine serum, 2 mM glutamine and non-essential amino acids, cells were cultured at 37° C. in 5% CO2 cell incubator, and trypsin/ethylenediamine tetraacetic acid (EDTA) were used to harvest cells in cell culture bottle. […] The change of cell form was observed under microscope, then 50 μl 50% (mass/volume)trichloroacetic acid (TCA) was added to per well to fix cells. The final concentration of TCA was 10%, standing for 5 min and placing in 4° C. refrigerator for 1 h, the wells of the culture plate were washed with deionized water for 5 times to remove TCA, drained, dried in air until no wet trace was observed. 100 μl of 0.4% (mass/volume) SRB was added to each well, stood at room temperature for 10 min, the liquid in each well was discarded, then the wells were washed with 1% acetic acid for 5 times, dried in air, extracted with 150 μl of 10 mM Tris base (trihydroxymethylaminomethane, pH 10.5), the absorption at 540 nm wavelength was detected.
# [4] = system: human gastric cancer cell line NCI-N87; assay: Test of cell proliferation inhibition (SRB), N87; type: cell-based; details: for IC50: Homo sapiens, NCI-N87, 72 h, read-out: Test of cell proliferation inhibition IC50 N87
# Method: as §2, §3
# [5] = system: human ovarian cancer SK-OV-3 transplanted tumor; assay: Tumor inhibition at a single dose, SK-OV-3 transplanted tumor in nude mice; type: in vivo, BALB/cA-nude mice; details: 200 mg/kg intragastrically, once per day, 21 days; for Animal number in each group: Partial regression: of 6 animals
# From the text: (§4) BALB/cA-nude mice, female, 4-6 weeks, body weight 22±2 g, were purchased from Shanghai SLAC Laboratory Animal Co. Ltd, raised in SPF grade environment.
# (§5) In vitro cultured NCI-N87 cells were subcutaneously inoculated at right axillary fossa of nude mice, each was inoculated with about 5×10^6 cells, and passaged twice in vivo after tumor formation. Under sterile conditions, eugonic tumor tissues were cut into tumor pieces of about 1.5 mm^3, and inoculated at right axillary fossa of nude mice. Tumor diameters were measured by vernier caliper, the animals were randomly divided (d0) after the tumors grew to 100-200 mm^3. […] During administration period, the body weight of mice and the diameter of tumors were measured 3 times per week. The tumor volume and relative tumor volume were calculated according to the measured data, the formulation for calculating tumor volume (TV) is: TV=½×a×b^2, wherein a, b represent major diameter and minor diameter of tumor; the formulation for calculating relative tumor volume (RTV) is: RTV=Vt/V0, wherein V0 is the tumor volume measured when dividing groups for administration (i.e., d0), Vt is tumor volume measured each time. […] The formulation for calculating relative tumor inhibition rate is: 1−T/C (%).
# (§6) Nude mice were subcutaneously inoculated with human ovarian cancer SK-OV-3 cells, after tumors grew to 60-150 mm^3, the animals were randomly divided into groups (d0). […] During the administration period, the body weight of mice and the diameter of tumor were measured 3 times per week. The tumor volume, relative tumor inhibition rate and so on were calculated according to the aforementioned methods.
# [6] = system: human gastric cancer NCI-N87 transplanted tumor; assay: Tumor inhibition at a single dose, NCI-N87 transplanted tumor in nude mice; type: in vivo, BALB/cA-nude mice; details: 200 mg/kg intragastrically, once per day, 28 days; for Rate of tumor inhibition d21 (%): head prints d21; for d28 Vave (tumor volume): in mm³; for Animal number in each group: Partial regression: of 6 animals
# From the text: as §4, §5
# [7] = system: human ovarian cancer SK-OV-3 transplanted tumor; assay: Tumor inhibition at different dosages, SK-OV-3 transplanted tumor in nude mice; type: in vivo, BALB/cA-nude mice; details: once per day, 21 days; for Animal number in each group: Partial regression: of 6 animals
# From the text: as §4, §5
# as §6, with “The tumor volume, and” for “During the administration period, the”, “mice” for “mice and the diameter of tumor”, “week, and all data were recorded.” for “week.”
# [8] = Pharmacokinetics in SD rats after a single intragastric dose; type: in vivo; details: 100 mg/kg intragastric single dose, plasma
# Method: The animals were fasted for 12 h before test, drinking water freely. And fed after 2 h of administration. At 0.25, 0.5, 1.0, 2.0, 3.0, 5.0, 7.0, 9.0, 12 and 24 h after administration, 0.3 ml blood samples were taken from venous plexus behind eyeball of rats into heparinized test tubes, then centrifuged at 11000 rpm for 5 min, plasma were separated, and preserved at […]. The concentrations of drug in original form and metabolites thereof in plasma were measured by liquid chromatography-mass spectrometry.
# [9] = biological target: hERG potassium currents (IKr) (Homo sapiens (Human), UniProt Q12809); assay: hERG potassium currents, whole cell patch clamp in transfected HEK293 cells; type: cell-based; details: HEK293 cells transfected with hERG cDNA
# Chain of hERG potassium currents (IKr) (Q12809 whole entry): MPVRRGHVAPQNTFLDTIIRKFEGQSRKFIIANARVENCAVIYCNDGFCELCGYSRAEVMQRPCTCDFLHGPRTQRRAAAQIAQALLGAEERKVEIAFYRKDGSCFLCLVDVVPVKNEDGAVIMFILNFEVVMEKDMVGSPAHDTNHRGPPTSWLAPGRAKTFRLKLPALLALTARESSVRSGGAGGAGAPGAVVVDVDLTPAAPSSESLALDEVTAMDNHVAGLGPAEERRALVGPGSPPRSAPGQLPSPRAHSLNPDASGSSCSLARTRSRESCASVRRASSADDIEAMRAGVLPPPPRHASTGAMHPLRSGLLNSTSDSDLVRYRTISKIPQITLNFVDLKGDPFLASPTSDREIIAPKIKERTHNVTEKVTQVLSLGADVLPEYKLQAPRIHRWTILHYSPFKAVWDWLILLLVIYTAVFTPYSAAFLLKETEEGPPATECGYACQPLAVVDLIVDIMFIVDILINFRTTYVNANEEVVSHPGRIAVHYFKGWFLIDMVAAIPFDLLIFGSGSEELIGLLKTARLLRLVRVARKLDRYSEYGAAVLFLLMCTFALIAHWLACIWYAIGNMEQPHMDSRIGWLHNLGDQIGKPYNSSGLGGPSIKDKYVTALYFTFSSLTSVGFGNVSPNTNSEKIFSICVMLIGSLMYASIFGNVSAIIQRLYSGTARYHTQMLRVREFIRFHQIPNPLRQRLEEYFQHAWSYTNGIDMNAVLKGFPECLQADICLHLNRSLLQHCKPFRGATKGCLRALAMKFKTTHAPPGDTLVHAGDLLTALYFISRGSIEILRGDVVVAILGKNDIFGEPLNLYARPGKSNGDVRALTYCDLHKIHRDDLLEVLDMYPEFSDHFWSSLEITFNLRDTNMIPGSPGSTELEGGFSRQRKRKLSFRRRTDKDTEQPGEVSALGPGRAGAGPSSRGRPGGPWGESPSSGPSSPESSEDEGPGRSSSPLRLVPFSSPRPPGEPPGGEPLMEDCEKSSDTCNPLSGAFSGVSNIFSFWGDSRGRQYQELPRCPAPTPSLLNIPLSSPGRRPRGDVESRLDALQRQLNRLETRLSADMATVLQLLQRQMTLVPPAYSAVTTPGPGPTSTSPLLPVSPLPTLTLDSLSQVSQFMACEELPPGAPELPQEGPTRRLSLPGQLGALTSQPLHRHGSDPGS
# Chain of EGFR receptor tyrosine kinase (P00533 25-1210): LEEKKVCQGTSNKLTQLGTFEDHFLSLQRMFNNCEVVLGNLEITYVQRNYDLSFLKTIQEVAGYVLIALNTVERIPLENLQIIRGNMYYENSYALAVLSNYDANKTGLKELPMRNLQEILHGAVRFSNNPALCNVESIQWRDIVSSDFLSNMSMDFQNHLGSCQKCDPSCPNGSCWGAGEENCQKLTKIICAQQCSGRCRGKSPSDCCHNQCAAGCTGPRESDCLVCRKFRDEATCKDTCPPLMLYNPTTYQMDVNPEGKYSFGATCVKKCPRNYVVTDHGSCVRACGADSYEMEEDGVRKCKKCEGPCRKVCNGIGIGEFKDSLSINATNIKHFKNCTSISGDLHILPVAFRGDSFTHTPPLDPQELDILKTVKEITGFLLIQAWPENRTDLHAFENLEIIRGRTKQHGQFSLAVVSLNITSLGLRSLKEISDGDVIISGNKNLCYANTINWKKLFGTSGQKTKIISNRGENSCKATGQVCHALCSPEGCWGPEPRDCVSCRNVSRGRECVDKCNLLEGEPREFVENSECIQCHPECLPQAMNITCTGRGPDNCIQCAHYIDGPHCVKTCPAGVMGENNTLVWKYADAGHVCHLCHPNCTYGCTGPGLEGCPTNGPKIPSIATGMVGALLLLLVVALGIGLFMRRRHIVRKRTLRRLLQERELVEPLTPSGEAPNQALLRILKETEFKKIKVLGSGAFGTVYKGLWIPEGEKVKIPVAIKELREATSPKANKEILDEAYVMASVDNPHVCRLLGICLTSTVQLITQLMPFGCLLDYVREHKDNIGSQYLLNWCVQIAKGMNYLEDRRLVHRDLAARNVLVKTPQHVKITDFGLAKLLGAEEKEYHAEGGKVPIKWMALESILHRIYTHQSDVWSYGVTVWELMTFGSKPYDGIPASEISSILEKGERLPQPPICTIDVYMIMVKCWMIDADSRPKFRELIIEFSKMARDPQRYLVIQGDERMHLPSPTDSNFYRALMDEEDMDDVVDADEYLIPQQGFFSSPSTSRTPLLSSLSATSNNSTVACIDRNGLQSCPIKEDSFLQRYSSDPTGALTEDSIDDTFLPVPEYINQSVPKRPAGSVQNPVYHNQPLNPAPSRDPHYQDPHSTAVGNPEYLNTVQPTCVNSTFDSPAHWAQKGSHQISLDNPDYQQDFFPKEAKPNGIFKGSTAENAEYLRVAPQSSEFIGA
# Chain of Her2 receptor tyrosine kinase (P04626 23-1255): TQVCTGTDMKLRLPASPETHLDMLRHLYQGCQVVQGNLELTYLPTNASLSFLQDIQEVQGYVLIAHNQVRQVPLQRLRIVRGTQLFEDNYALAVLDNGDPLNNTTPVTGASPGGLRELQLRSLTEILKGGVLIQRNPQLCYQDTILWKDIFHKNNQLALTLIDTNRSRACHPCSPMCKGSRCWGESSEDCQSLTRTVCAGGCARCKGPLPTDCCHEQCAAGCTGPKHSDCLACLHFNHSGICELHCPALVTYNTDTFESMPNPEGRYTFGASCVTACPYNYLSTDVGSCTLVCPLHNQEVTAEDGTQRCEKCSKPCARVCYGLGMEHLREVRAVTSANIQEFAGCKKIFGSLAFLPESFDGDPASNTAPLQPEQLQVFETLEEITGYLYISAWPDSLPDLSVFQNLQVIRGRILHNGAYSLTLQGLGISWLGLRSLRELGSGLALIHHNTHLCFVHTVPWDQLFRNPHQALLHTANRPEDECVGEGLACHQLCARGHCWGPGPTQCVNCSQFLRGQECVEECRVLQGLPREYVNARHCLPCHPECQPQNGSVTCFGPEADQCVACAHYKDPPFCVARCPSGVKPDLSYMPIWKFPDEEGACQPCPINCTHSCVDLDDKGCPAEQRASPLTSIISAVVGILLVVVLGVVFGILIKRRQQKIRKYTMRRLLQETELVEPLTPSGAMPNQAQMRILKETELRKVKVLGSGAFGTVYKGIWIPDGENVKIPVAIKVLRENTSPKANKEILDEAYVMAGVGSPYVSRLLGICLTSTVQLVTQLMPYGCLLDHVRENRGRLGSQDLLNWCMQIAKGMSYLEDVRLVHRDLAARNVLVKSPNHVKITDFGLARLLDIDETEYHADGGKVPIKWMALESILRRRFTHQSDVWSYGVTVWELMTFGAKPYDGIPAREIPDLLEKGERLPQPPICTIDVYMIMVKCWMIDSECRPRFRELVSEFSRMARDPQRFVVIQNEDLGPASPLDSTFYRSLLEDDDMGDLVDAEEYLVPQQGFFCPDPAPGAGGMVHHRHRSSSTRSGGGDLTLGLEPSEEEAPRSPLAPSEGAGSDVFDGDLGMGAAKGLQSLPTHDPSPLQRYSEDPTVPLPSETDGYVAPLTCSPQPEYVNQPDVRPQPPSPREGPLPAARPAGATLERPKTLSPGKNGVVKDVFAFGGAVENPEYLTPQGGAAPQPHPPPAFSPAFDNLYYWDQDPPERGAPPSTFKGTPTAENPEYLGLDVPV
Structure (SMILES),IC50 [1] [nM],IC50 [2] [nM],IC50 [3] [nM],IC50 [4] [nM],Rate of tumor inhibition d21 (%) [5] [%],d21 Vave (tumor volume) [5] [mm^3],Animal number in each group: Partial regression [5],Rate of tumor inhibition d21 (%) [6] [%],d28 Vave (tumor volume) [6],Animal number in each group: Partial regression [6],other results
"NS(=O)(=O)CCNCc1ccc(-c2ccc3ncnc(Nc4ccc(OCc5cccc(F)c5)c(Cl)c4)c3c2)o1 [Compound 1, N-(4-(3-fluorobenzyloxy)-3-chlorophenyl)-6-(5-((2-(sulfamoyl)ethylamino)methyl)-2-furyl)-quinazolin-4-amine]",1.55,,,,,,,,,,
"O=S(=O)(CCNCc1ccc(-c2ccc3ncnc(Nc4ccc(OCc5cccc(F)c5)c(Cl)c4)c3c2)o1)C(F)(F)F [Compound 6, N-(4-(3-fluorobenzyloxy)-3-chlorophenyl)-6-(5-((2-(trifluoromethylsulfonyl)ethylamino)methyl)-2-furyl)-quinazolin-4-amine]",25.6,32.4,49.7,54.6,,,,,,,
"O=S(=O)(CCNCc1ccc(-c2ccc3ncnc(Nc4ccc(OCc5cccc(F)c5)c(Cl)c4)c3c2)o1)CC(F)(F)F [Compound 5, N-(4-(3-fluorobenzyloxy)-3-chlorophenyl)-6-(5-((2-(2,2,2-trifluoroethylsulfonyl)ethylamino)methyl)-2-furyl)-quinazolin-4-amine]",8.08,14.6,18.8,33.7,45,770.9,0,46.8,414.78,1,RTV (relative tumor volume) [5]: 5.8; RTV (relative tumor volume) [6]: 2.574
"CS(=O)(=O)NCCNCc1ccc(-c2ccc3ncnc(Nc4ccc(OCc5cccc(F)c5)c(Cl)c4)c3c2)o1 [Compound 4, N-(4-(3-fluorobenzyloxy)-3-chlorophenyl)-6-(5-((2-(methylsulfonamido)ethylamino)methyl)-2-furyl)-quinazolin-4-amine]",7.06,15.5,,,,,,,,,
"CS(=O)(=O)CCNCc1ccc(-c2ccc3ncnc(Nc4ccc(OCc5cccc(F)c5)c(Cl)c4)c3c2)o1 [Compound 61, N-(4-(3-fluorobenzyloxy)-3-chlorophenyl)-6-(5-((2-(methylsulfonyl)ethylamino)methyl)-2-furyl)-quinazolin-4-amine, reference compound]",,,,,79,291.0,1,89.8,106.20,5,"Rate of tumor inhibition d21 (%) ([7]; 200 mg/kg intragastrically): 75%; d21 Vave (tumor volume) ([7]; 200 mg/kg intragastrically): 350.1 mm^3; Animal number in each group: Partial regression ([7]; 200 mg/kg intragastrically): 0; biological activity results in the same test (in words) ([4]; same test as Table 1 (cell proliferation inhibition, N87 and BT474), comparison in words): close to those of compound 6; AUC0-t ± SD [8]: 26908 ± 9085 ng·h/mL; AUC0-∞ ± SD [8]: 26921 ± 9092 ng·h/mL; Cmax ± SD [8]: 3902 ± 1208 ng/mL; MRT ± SD [8]: 5.52 ± 0.90 h; T1/2 ± SD [8]: 1.91 ± 0.45 h; Tmax ± SD [8]: 2.5 ± 0.6 h"
"CSCCNCc1ccc(-c2ccc3ncnc(Nc4ccc(OCc5cccc(F)c5)c(Cl)c4)c3c2)o1 [Compound 3, N-(4-(3-fluorobenzyloxy)-3-chlorophenyl)-6-(5-((2-(methylthio)ethylamino)methyl)-2-furyl)-quinazolin-4-amine]",34.6,56.2,23.4,24.9,75,334.8,0,84.6,143.01,4,RTV (relative tumor volume) [5]: 2.7; RTV (relative tumor volume) [6]: 0.743; RTV (relative tumor volume) ([7]; 50 mg/kg intragastrically): 6.9; Rate of tumor inhibition d21 (%) ([7]; 50 mg/kg intragastrically): 32%; d21 Vave (tumor volume) ([7]; 50 mg/kg intragastrically): 830.7 mm^3; Animal number in each group: Partial regression ([7]; 50 mg/kg intragastrically): 0; RTV (relative tumor volume) ([7]; 100 mg/kg intragastrically): 6.5; Rate of tumor inhibition d21 (%) ([7]; 100 mg/kg intragastrically): 36%; d21 Vave (tumor volume) ([7]; 100 mg/kg intragastrically): 778.6 mm^3; Animal number in each group: Partial regression ([7]; 100 mg/kg intragastrically): 0; RTV (relative tumor volume) ([7]; 200 mg/kg intragastrically): 4.4; Rate of tumor inhibition d21 (%) ([7]; 200 mg/kg intragastrically): 56%; d21 Vave (tumor volume) ([7]; 200 mg/kg intragastrically): 612.6 mm^3; Animal number in each group: Partial regression ([7]; 200 mg/kg intragastrically): 0
"C[S+]([O-])CCNCc1ccc(-c2ccc3ncnc(Nc4ccc(OCc5cccc(F)c5)c(Cl)c4)c3c2)o1 (centres unmarked) [Compound 2, N-(4-(3-fluorobenzyloxy)-3-chlorophenyl)-6-(5-((2-(methylsulfinyl)ethylamino)methyl)-2-furyl)-quinazolin-4-amine]",,52.7,,,,,,,,,IC50 ([9]; read-out: semi-effective inhibition dose IC50 for IKr pulse current): 10100 ± 960 nM; IC50 ([9]; read-out: semi-effective inhibition dose IC50 for tail current): ~9240 nM; AUC0-t ± SD [8]: 50299 ± 12863 ng·h/mL; AUC0-∞ ± SD [8]: 53236 ± 12248 ng·h/mL; Cmax ± SD [8]: 8881 ± 2061 ng/mL; MRT ± SD [8]: 5.38 ± 0.59 h; T1/2 ± SD [8]: 2.32 ± 0.5 h; Tmax ± SD [8]: 3.5 ± 1.0 h
